Experiment [1] deals with T1, Taspase1 (Homo sapiens, UniProt Q9H6P5).
T1 sequence (Q9H6P5 1-233 limits assumed): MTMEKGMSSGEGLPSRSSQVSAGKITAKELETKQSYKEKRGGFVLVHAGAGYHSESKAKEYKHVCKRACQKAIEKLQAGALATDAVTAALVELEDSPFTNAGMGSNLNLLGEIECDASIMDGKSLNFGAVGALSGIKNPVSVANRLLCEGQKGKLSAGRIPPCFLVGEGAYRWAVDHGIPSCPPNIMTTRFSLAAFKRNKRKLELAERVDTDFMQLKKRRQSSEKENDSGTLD
The experiment in a line: FRET-based Taspase1 proteolytic reporter (FRPR) assay. As to conditions: for EC50: Maybridge library screen, dose-response. Type of experiment: biochemical.

Experiment [2] addresses T2, recombinant Taspase1 (rTaspase1) (Homo sapiens, UniProt Q9H6P5).
T2 sequence (Q9H6P5 1-233 limits assumed): T1 sequence (Q9H6P5 1-233 limits assumed)
The experiment in a line: Taspase1-MLL in vitro cleavage assay (IVTT 35S methionine labeled p75MLL reporter, SDS-PAGE, autoradiography). Type of experiment: biochemical. As to conditions: for Inhibition of Taspase1-mediated p75MLL cleavage (in words): indicated concentrations, 30 minutes pretreatment; for IC50: rTaspase1 pretreated 30 minutes at room temperature, then p75MLL reporter 30 minutes at 30° C., read-out: IC50 of Taspase1 inhibition (p75MLL cleavage); for Effect of increasing pretreatment time on Taspase1 inhibition: 5 μM, pre-incubation for increasing periods of time; for Inhibition of Taspase1-mediated p75MLL cleavage at 1 mM: 1 mM (up to 1 mM).

Experiment [3] has as its system SV40-transformed mouse embryonic fibroblasts (MEFs). The experiment in a line: MTT assay of SV40-transformed MEFs, wild-type versus Taspase1-/-. Type of experiment: cell-based. As to conditions: 2 days, relative cell number.
The subject of experiment [4] is NCI60 cell lines. The following applies: NCI DTP database; cited from earlier work.
Experiment [5] addresses Recombinant Caspase8 (rCaspase8) (Homo sapiens, UniProt Q14790). The experiment in a line: Caspase8-BID in vitro cleavage assay (IVTT 35S methionine labeled p22Bid reporter). Type of experiment: biochemical. As to conditions: 1 mM, tertiary screen.
Experiment [6] has as its target autotoxin (Homo sapiens, UniProt Q13822). The following applies: cited from earlier work.

The IC50 is the point on the concentration scale where inhibition reaches its midpoint. The Ki is a measure of affinity in units of concentration, obtained from inhibition or displacement. The term Km denotes the substrate concentration at which the rate is half of its maximum.

Entries after “also recorded” stand apart in the source; their conditions may differ. Residues, ends and D or L forms follow the SMILES beside them. *: point of attachment. DNP = 2,4-dinitrophenyl quenching group; X1 = CS(=O)(=O)/C=C/[C@H](CC(=O)O)N*; MCA = fluorogenic coumarin group

Recombinant Caspase8 (rCaspase8), sequence (Q14790 217-374 limits assumed, species assumed): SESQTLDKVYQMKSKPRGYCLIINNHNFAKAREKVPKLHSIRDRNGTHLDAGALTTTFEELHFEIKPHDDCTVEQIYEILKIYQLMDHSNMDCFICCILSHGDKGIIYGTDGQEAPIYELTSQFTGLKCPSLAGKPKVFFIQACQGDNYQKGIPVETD

For the compound `O=C(NNC(=S)Nc1cccc(C(F)(F)F)c1)c1sc2ccccc2c1Cl` [BTB 00807], the EC50 in experiment [1] worked out at 9.9 µM.
The same measure, in the same setting: with `S=C(NNC(=S)NC1CC2C=CC1C2)Nc1ccc(Br)c(Cl)c1` (centres unmarked) [CD 02506] the figure was 1.5 µM.
Still for that read-out and setting: with `O=C(CO/N=C/c1ccc(Cl)cc1Cl)NNCCC(=S)Nc1cc(Cl)ccc1Cl` [CD 06082] the figure was 3.3 µM; with `Cc1ccc(-c2nc(NS(=O)(=O)c3cccc4nonc34)sc2C)cc1Cl` [HTS 01888], 2.2 µM; with `Cc1ccc(S(=O)(=O)NC(=O)Nc2nc(-c3ccc(C)c(Cl)c3)c(C)s2)cc1` [HTS 06900], 4 µM.
For the compound `CC[C@H](C)[C@H](NC(=O)[C@H](CCCCN)NC(C)=O)C(=O)N[C@@H](CO)C(=O)N[C@@H](CCC(N)=O)C(=O)N[C@@H](CC(C)C)C(=O)N[C@H](C=O)CC(=O)O` [ISQLD-aldehyde] (Ac-KISQLD-aldehyde), the “Inhibition of Taspase1-mediated p75MLL cleavage (in words)” value in experiment [2] is recorded as “minimal activity”.
Regarding `CC[C@H](C)[C@H](NC(C)=O)C(=O)N[C@@H](CO)C(=O)N[C@@H](CCC(N)=O)C(=O)N[C@@H](CC(C)C)C(=O)N[C@H](/C=C/S(C)(=O)=O)CC(=O)O` [ISQLD-vinyl sulfone] (Ac-ISQL-X1; N-terminus and C-terminus assumed), the IC50 in experiment [2] was found to be 29.4 µM.
With `O=[As](O)(O)c1ccc(Cc2ccc([As](=O)(O)O)cc2)cc1` [NSC48300, [4-[(4-arsonophenyl)methyl]phenyl]arsonic acid], in experiment [3], the “Susceptibility of wild-type versus Taspase1-/- SV40-transformed MEFs” value is “more susceptible”. Further, the “Growth inhibition in the NCI60 screen” value in experiment [4] is “distinct pattern of growth inhibition”. In addition, in experiment [2], the “Effect of increasing pretreatment time on Taspase1 inhibition” value is “did not enhance the inhibition”, the “Inhibition of Taspase1-mediated p75MLL cleavage at 1 mM” value is listed as “inhibited Taspase1” and the IC50 is ~7.5 µM. Moreover, the “Effect of increasing pretreatment time on Taspase1 inhibition” value in experiment [2] (listed as TASPIN-NSC48300) is given as “did not exhibit enhanced inhibition”. Also, the “Inhibition of Taspase1-mediated p75MLL cleavage at 10 μM” value in experiment [2] (10 μM) is “completely inhibited”. Also, in experiment [1] (100 nM rTaspase1, varying concentrations of FRPR, read-out: KI of Taspase1 inhibition), the inhibition constant Ki was 4.22 ± 0.46 µM. Further, the “Mode of Taspase1 inhibition” value in experiment [1] (varying concentrations of FRPR and inhibitor) is “non-competitive inhibition”. Further, in experiment [5], the “Inhibition of Caspase8-mediated p22Bid cleavage” value is “only targets Taspase1; also recorded: not Caspase8”. Further, the Inhibition of autotoxin entry in experiment [6] was “inhibit autotoxin”.
In the case of `Cc1ccc(NC(=S)NNC(=O)Cn2nnc(-c3cccc(Cl)c3Cl)n2)cc1Cl` [RJF 02020], the EC50 in experiment [1] came out at 3.9 µM.
In experiment [1], `CC(C)(C)c1cc(C(=O)NNC(=S)Nc2ccccc2)n(Cc2ccc(Cl)cc2Cl)n1` [SPB 08132] had an EC50 of 5.9 µM.
With `CC(C)C[C@H](NC(=O)[C@H](Cc1ccccc1)NC(=O)c1cnccn1)B(O)O` [bortezomib], the “Inhibition of Taspase1-mediated p75MLL cleavage (in words)” value in experiment [2] is given as “no activity”.
Turning to “MCA-KISQLDGVDD-DNP ({MCA}-KISQLDGVDD-{DNP}) [FRPR]”, the Km in experiment [1] (rTaspase1 at room temperature, read-out: apparent KM of the reporter substrate) turned out to be 9.06 ± 2.8 µM.
Take arsenic acid: the “Inhibition of Taspase1-mediated p75MLL cleavage at 1 mM” value in experiment [2] is listed as “no inhibition”.

Source of the values: US8501811B2, “TASPASE1 inhibitors and their uses” (Washington University, priority 2010, dated 2013).
